In general, GI50 refers to the concentration at which growth is held to half of that of the control. One may read the TGI as the concentration at which net growth stops. Lower therefore signals more potent growth arrest.

We go through 10 compounds from PubChem BioAssay (NCI).

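Interpolation was linear, between the two tested concentrations surrounding the appropriate level; five concentrations were tested over 48 hours in 96-well plates. The concentration for 50% growth inhibition is given as GI50. At the TGI there is no net growth.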

Among the test systems are OVCAR-3 ovarian; SN12C renal; DU-145 prostate; HCT-15 colon; SF-539 CNS; NCI/ADR-RES ovarian; RPMI-8226 leukemia; OVCAR-5 ovarian; SK-MEL-28 melanoma; SNB-19 CNS.
Assay in all cases: DTP human tumour cell line panel, 48 h

As for `COC(=O)c1ccc(NC(N)=NCC(C)(C)COc2ccc(C(F)(F)F)cc2)nc1`, the GI50 with OVCAR-3 ovarian was 1.64 µM; in the assay on SN12C renal, 1.79 µM; with DU-145 prostate, 1.7 µM; in the assay on HCT-15 colon it was 1.56 µM; with SF-539 CNS, 1.71 µM; in the assay with NCI/ADR-RES ovarian it was 1.68 µM. Besides, the GI50 in the assay on RPMI-8226 leukemia is 1.3 µM; with OVCAR-5 ovarian, 1.6 µM; in the assay with SK-MEL-28 melanoma it was 1.64 µM. The TGI in the assay with OVCAR-3 ovarian amounted to 3.17 µM; in the assay on SN12C renal, 3.41 µM; with DU-145 prostate, 3.2 µM; with HCT-15 colon it was 3.08 µM; in the assay on SF-539 CNS, 3.13 µM; in the assay with NCI/ADR-RES ovarian, 3.34 µM. Besides, the TGI with RPMI-8226 leukemia amounted to 3.64 µM; in the assay on OVCAR-5 ovarian it was 3.08 µM; with SK-MEL-28 melanoma, 3.08 µM.

Take `CC(=O)OC1CC2(O)C(CCC3(C)C(c4ccc(=O)oc4)CCC32O)C2(C)CCC(OC3OC(CO)C(O)C(O)C3O)C=C12` (centres undefined): the GI50 in the assay with OVCAR-3 ovarian was 0.0282 µM; with DU-145 prostate it was 0.0183 µM; in the assay with HCT-15 colon, 0.0343 µM; in the assay with SF-539 CNS, 0.0144 µM; in the assay with NCI/ADR-RES ovarian, 0.0172 µM; in the assay on RPMI-8226 leukemia it was 0.0309 µM. Besides, the GI50 in the assay with SNB-19 CNS was 0.0461 µM; in the assay on OVCAR-5 ovarian it was 0.044 µM; in the assay on SK-MEL-28 melanoma, 0.049 µM. For the same compound, the TGI in the assay with OVCAR-3 ovarian was determined as 0.0949 µM; in the assay with DU-145 prostate it was 0.0594 µM; with HCT-15 colon, 0.134 µM; in the assay on SF-539 CNS, 0.0331 µM; in the assay on NCI/ADR-RES ovarian it was 0.0541 µM; with RPMI-8226 leukemia, 0.162 µM. Further, the TGI in the assay with SNB-19 CNS came to 0.165 µM; with OVCAR-5 ovarian, 0.168 µM; with SK-MEL-28 melanoma, 0.231 µM.

`O=C1c2ccccc2C(=O)c2sc(Nc3ccc(Cl)cc3)nc21`: the TGI is 2.74 µM with OVCAR-3 ovarian; 3.56 µM with SN12C renal; 3.8 µM in the assay on HCT-15 colon; 6.33 µM in the assay on SF-539 CNS; 5.52 µM in the assay with NCI/ADR-RES ovarian; 4.73 µM in the assay with RPMI-8226 leukemia. Moreover, the TGI came out at 9.71 µM in the assay on SNB-19 CNS, 7.37 µM with OVCAR-5 ovarian and 3.36 µM in the assay on SK-MEL-28 melanoma. The GI50 with NCI/ADR-RES ovarian was 2.1 µM.

In the case of `CCCC(CCC)Oc1ccc(CCCC2=C(O)c3ccccc3C(=O)C2=O)cc1`, the GI50 was 4.33 µM with OVCAR-3 ovarian; 6.79 µM with SN12C renal; 6.71 µM in the assay with DU-145 prostate; 3.76 µM in the assay on HCT-15 colon; 5.43 µM with SF-539 CNS; 5.36 µM with NCI/ADR-RES ovarian. Besides, the GI50 in the assay with RPMI-8226 leukemia was 2.9 µM; in the assay on OVCAR-5 ovarian it was 11.8 µM; in the assay on SK-MEL-28 melanoma, 10.1 µM. Also, the TGI with OVCAR-3 ovarian was determined as 15 µM; with SN12C renal it was 22.5 µM; in the assay with DU-145 prostate, 19 µM; with HCT-15 colon it was 15 µM; in the assay on SF-539 CNS, 18.7 µM; with NCI/ADR-RES ovarian, 22.5 µM. The TGI in the assay with RPMI-8226 leukemia was determined as 7.49 µM; in the assay with OVCAR-5 ovarian, 25.8 µM; in the assay on SK-MEL-28 melanoma, 21.7 µM.

Regarding `CCCCCCCC(=O)NS(=O)(=O)c1ccccc1`, the TGI with OVCAR-3 ovarian, in the assay with DU-145 prostate, in the assay with HCT-15 colon, with SF-539 CNS, in the assay on NCI/ADR-RES ovarian and with RPMI-8226 leukemia was more than 100 µM in each case. The TGI in the assay on SNB-19 CNS and with SK-MEL-28 melanoma was more than 100 µM each time.

Regarding `Clc1ccc(-c2nc(C(Cl)Cl)nc3cc(-c4ccccc4)nn23)cc1`, the GI50 was 0.925 µM in the assay on OVCAR-3 ovarian; more than 50 µM in the assay on SN12C renal; 0.516 µM in the assay on DU-145 prostate; 1.3 µM in the assay on HCT-15 colon; 2.34 µM in the assay with SF-539 CNS; 1.27 µM with NCI/ADR-RES ovarian. For the same compound, the GI50 in the assay on RPMI-8226 leukemia is 2.54 µM; in the assay with SNB-19 CNS, 1.49 µM; with OVCAR-5 ovarian, 1.53 µM. The TGI in the assay with OVCAR-3 ovarian is 2.01 µM; in the assay on SN12C renal, more than 50 µM; with DU-145 prostate, 2.02 µM; with HCT-15 colon, more than 50 µM; in the assay with SF-539 CNS, more than 50 µM; with NCI/ADR-RES ovarian, more than 50 µM. The TGI in the assay on RPMI-8226 leukemia, in the assay on SNB-19 CNS and in the assay on OVCAR-5 ovarian was more than 50 µM throughout.

Turning to `NC(=NCCO)c1ccc(N2CCCN(c3ccc(C(N)=NCCO)cc3)CC2)cc1`, the GI50 with OVCAR-3 ovarian is more than 100 µM; with SN12C renal it was 8.8 µM; in the assay on HCT-15 colon it was more than 100 µM; in the assay on NCI/ADR-RES ovarian, more than 100 µM; in the assay on SNB-19 CNS it was more than 100 µM; in the assay with OVCAR-5 ovarian, more than 100 µM. Moreover, the GI50 in the assay on SK-MEL-28 melanoma was more than 100 µM. The TGI with OVCAR-3 ovarian, in the assay on SN12C renal, in the assay with HCT-15 colon, in the assay with NCI/ADR-RES ovarian, in the assay with SNB-19 CNS and in the assay on OVCAR-5 ovarian was more than 100 µM in each case. In the assay with SK-MEL-28 melanoma, the concentration for total growth inhibition (TGI) was more than 100 µM.

For `COC1C(O)CC(OC2CC(OC3CC(O[C@@H]4C(=O)c5c(cc6cc(OC7CC(OC8CC(O)C(O)C(C)O8)C(O)C(C)O7)c(C)c(O)c6c5O)C[C@H]4[C@H](OC)C(=O)[C@@H](O)[C@@H](C)O)OC(C)C3O)OC(C)C2O)OC1C` (some centres undefined), the TGI in the assay with OVCAR-3 ovarian is 0.101 µM; in the assay on SN12C renal, more than 60.5 µM; in the assay on DU-145 prostate it was 0.281 µM; in the assay with HCT-15 colon it was 22 µM; in the assay on SF-539 CNS it was 0.0312 µM; in the assay with RPMI-8226 leukemia, 0.383 µM. The TGI in the assay with SNB-19 CNS was more than 11.1 µM; in the assay on OVCAR-5 ovarian, 0.564 µM; in the assay with SK-MEL-28 melanoma, 0.0224 µM.

Take `Cc1nc2ccccc2c(/C=C/c2ccccc2)c1C(=O)/C=C/c1ccc(Cl)cc1`: the GI50 in the assay on OVCAR-3 ovarian was 1.48 µM; with SN12C renal, 1.71 µM; in the assay with NCI/ADR-RES ovarian, 1.81 µM; in the assay with RPMI-8226 leukemia it was 0.784 µM. Also, the TGI in the assay on OVCAR-3 ovarian stood at 2.91 µM; with SN12C renal, 4.39 µM; in the assay on NCI/ADR-RES ovarian, 4.88 µM; in the assay on RPMI-8226 leukemia, 3.58 µM.

For `COc1cc2c(c(OC)c1OC)C(=O)c1c-2n(CCCN=[N+]=[N-])c(=O)c2cc([N+](=O)[O-])ccc12`, the GI50 is more than 100 µM in the assay on OVCAR-3 ovarian; more than 100 µM with SN12C renal; more than 100 µM in the assay with DU-145 prostate; more than 100 µM in the assay with HCT-15 colon; 39.2 µM in the assay with SF-539 CNS; 53 µM in the assay on NCI/ADR-RES ovarian. Also, the results for the GI50 with SNB-19 CNS, with OVCAR-5 ovarian and in the assay on SK-MEL-28 melanoma were 72.6 µM, more than 100 µM and more than 100 µM, respectively. Besides, the TGI in the assay on OVCAR-3 ovarian, with SN12C renal, with DU-145 prostate, in the assay with HCT-15 colon, in the assay on SF-539 CNS and with NCI/ADR-RES ovarian was more than 100 µM in each case. Also, the TGI in the assay with SNB-19 CNS, in the assay on OVCAR-5 ovarian and in the assay with SK-MEL-28 melanoma was more than 100 µM throughout.
